Test results as given in patent US11345711B2, “8,9-dihydroimidazo[1,2-a]pyrimido[5,4-e]pyrimidin-5(6H)-ones” (IMPACT THERAPEUTICS (SHANGHAI), INC, priority 2016, dated 2022).

What was measured:
LoVo cells = experiment: MTT based cell viability assay on LoVo cells; settings: Homo sapiens, LoVo, 72 h, 3 d, read-out: IC50, growth inhibition of LoVo cells
Experimental: Determination of the cell growth inhibiting activity of 6-(2-chlorophenyl)-2-((4-(4-methylpiperazin-1-yl)phenyl)amino)-8,9-dihydroimidazo[1,2-a]pyrimido[5,4-e]pyrimidin-5(6H)-one and analogs on LoVo cells using a MTT based cell viability assay
(§1) The thawed LoVo cells were cultured and passaged to the third generation, and the growth state was good and the confluence was about 90%, which began to be used in the experiment. The LoVo cells were digested with trypsin, centrifuged at 800 rpm for 5 min, the supernatant was discarded, resuspended with fresh culture medium, and counted. 6000 Cells are seeded to each well of a 96-well plate. The cells are incubated at 37° C. in a 5% CO2 cell culture incubator overnight. The tested sample (including the tested compound and the reference compound AZD1775) was diluted continuously to 8 concentrations (the last concentration was negative control of DMSO) with a 1:3 and 1:10 dilution in DMSO respectively: 10 μM, 3.3 μM, 1 μM, 0.33 μM, 0.1 μM, 0.033 μM, 0.01 μM, 0 μM (the final concentration of DMSO was 1%). 5 μL of each concentration was added to 120 μL of culture medium (25 times diluted), and the mixture was shaken well. The overnight cells were taken and the culture medium was removed, 195 μL of fresh culture medium was added to each well, and 5 μL of diluted culture medium containing the corresponding concentration of the tested sample was added respectively, and the culture plate was then placed in the 5% CO2 cell culture incubator at 37° C. for 3 d. After removing the original solution and adding 100 μL of fresh serum-free DMEM culture medium containing MTT (0.5 mg/mL) per well, the culture was continued. The original solution was removed after 4 hrs and 100 μl DMSO was added to each well. The 96-well cell culture plates were shaken away from light for 10 min and readed in a multifunctional reader at 552/630/690 nm to give absorption values (OD values). The data were analyzed using a commercial graphic software (Graph Pad Prism 5.0) and the inhibitory activity of the compound on cell proliferation was plotted in terms of cell survival and compound concentration. The IC50 values were fitted by the S-shaped dose-response curve equation as follows: Y=100/(1+10^(Log C-Log IC50)), where C was the concentration of testing compounds.

Wee1 (h) = Wee1 (h) (Homo sapiens, UniProt P30291); experiment: Wee1 kinase (h) detection method, [γ-33P]-ATP filter assay; format: biochemical
Chain of Wee1 (h) (P30291 whole entry): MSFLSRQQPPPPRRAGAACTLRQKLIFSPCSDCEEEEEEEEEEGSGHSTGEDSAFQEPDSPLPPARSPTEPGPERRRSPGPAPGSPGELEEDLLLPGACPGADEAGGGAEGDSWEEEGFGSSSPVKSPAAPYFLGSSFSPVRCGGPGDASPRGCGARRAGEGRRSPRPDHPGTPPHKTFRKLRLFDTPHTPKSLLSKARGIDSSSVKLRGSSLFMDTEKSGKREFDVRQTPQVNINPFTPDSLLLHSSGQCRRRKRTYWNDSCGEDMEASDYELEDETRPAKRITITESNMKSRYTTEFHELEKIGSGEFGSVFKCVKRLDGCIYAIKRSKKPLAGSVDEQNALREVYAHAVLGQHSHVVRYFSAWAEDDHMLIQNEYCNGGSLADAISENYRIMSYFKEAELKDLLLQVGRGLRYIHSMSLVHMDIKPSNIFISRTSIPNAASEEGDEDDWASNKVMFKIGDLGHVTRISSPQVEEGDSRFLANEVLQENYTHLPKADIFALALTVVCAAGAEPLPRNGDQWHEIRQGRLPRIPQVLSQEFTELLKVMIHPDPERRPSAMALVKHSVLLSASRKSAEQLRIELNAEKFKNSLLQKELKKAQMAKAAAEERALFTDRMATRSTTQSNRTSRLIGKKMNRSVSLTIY
Experimental: Determination of the inhibitory effect of 6-(2-chlorophenyl)-2-((4-(4-methylpiperazin-1-yl)phenyl)amino)-8,9-dihydroimidazo[1,2-a]pyrimido[5,4-e]pyrimidin-5(6H)-one and Analogs on the Enzyme Activity of Wee1 Kinase by Using the Wee1 Kinase (h) Detection Method
Then the stock solution of all compounds under test with 50× concentration in 100% DMSO was added to make the final concentration of 10/1/0.1/0.01 μM, and then mixed the mixture well. The reaction is initiated by the addition of the Mg/ATP mix. After incubation for 40 minutes at room temperature, the reaction is stopped by the addition of phosphoric acid to a concentration of 0.5%. […] Each compound sample is duplicated in duplicate. The negative control was lack of all the components of Wee1 enzyme, and the positive was addition of 30% phosphoric acid to terminate the reaction. The Wee1 inhibitor AZD1775 was detected at 10 μM at the same experiment condition.

NCI-H1299 cells = experiment: MTT based cell viability assay on NCI-H1299 cells; settings: Homo sapiens, NCI-H1299 cells, read-out: IC50, growth inhibition of NCI-H1299 cells
Experimental: Determination of the cell growth inhibiting activity of 6-(2-chlorophenyl)-2-((4-(4-methylpiperazin-1-yl)phenyl)amino)-8,9-dihydroimidazo[1,2-a]pyrimido[5,4-e]pyrimidin-5(6H)-one and analogs on NCI-H1299 cells using a MTT based cell viability assay
as §1, with “NCI-H1299” for “LoVo”, “group,” for “medium,”, “1000” for “6000”, “1‰).” for “1%).”, “C−Log” for “C-Log”

SMILES	IC50 (LoVo cells)	Inh. (%) of Wee1 kinase enzyme activity (Wee1 (h); C 0.01 μm compound)	Inh. (%) of Wee1 kinase enzyme activity (Wee1 (h); C 0.1 μm compound)	Inh. (%) of Wee1 kinase enzyme activity (Wee1 (h); C 1 μm compound)	IC50 (NCI-H1299 cells)
CC(=O)N1Cc2cc(Nc3ncc4c(n3)N3CCN=C3N(c3c(F)cccc3Cl)C4=O)ccc2C2(CC2)C1 [Example 11, 6-(2-Chloro-6-fluorophenyl)-2-((2′-acetyl-2′,3′-dihydro-1′H-spiro[cyclopropane-1,4′-isoquinolin]-7′-yl)amino)-8,9-dihydroimidazo[1,2-a]pyrimido[5,4-e]pyrimidin-5(6H)-one]	101 nM	23%	85%	97%	705 nM
CN1CCc2ccc(Nc3ncc4c(n3)N3CCN=C3N(c3c(Cl)cccc3Cl)C4=O)cc2C1 [Example 12, 6-(2,6-Dichlorophenyl)-2-((2-methyl-1,2,3,4-tetrahydroisoquinolin-7-yl)amino)-8,9-dihydroimidazo[1,2-a]pyrimido[5,4-e]pyrimidin-5(6H)-one]	219 nM	32%	83%	98%	232 nM
CN1Cc2cc(Nc3ncc4c(n3)N3CCN=C3N(c3c(Cl)cccc3Cl)C4=O)ccc2C(C)(C)C1 [Example 13, 6-(2,6-Dichlorophenyl)-2-((2,4,4-trimethyl-1,2,3,4-tetrahydroisoquinolin-7-yl)amino)-8,9-dihydroimidazo[1,2-a]pyrimido[5,4-e]pyrimidin-5(6H)-one]	76.7 nM	29%	87%	100%	101 nM
CN1Cc2cc(Nc3ncc4c(n3)N3CCN=C3N(c3c(Cl)cccc3Cl)C4=O)ccc2C2(CC2)C1 [Example 14, 6-(2,6-Dichlorophenyl)-2-((2′-methyl-2′,3′-dihydro-1′H-spiro[cyclopropane-1,4′-isoquinolin]-7′-yl)amino)-8,9-dihydroimidazo[1,2-a]pyrimido[5,4-e]pyrimidin-5(6H)-one]	149 nM	12%	86%	92%	98.7 nM
Cc1cccc(C)c1N1C(=O)c2cnc(Nc3ccc4c(c3)CN(C)CC4)nc2N2CCN=C21 [Example 15, 6-(2,6-Dimethylphenyl)-2-((2-methyl-1,2,3,4-tetrahydroisoquinolin-7-yl)amino)-8,9-dihydroimidazo[1,2-a]pyrimido[5,4-e]pyrimidin-5(6H)-one]	1730 nM	–	–	89%	966 nM
Cc1cccc(C)c1N1C(=O)c2cnc(Nc3ccc4c(c3)CN(C)CC4(C)C)nc2N2CCN=C21 [Example 16, 6-(2,6-Dimethylphenyl)-2-((2,4,4-trimethyl-1,2,3,4-tetrahydroisoquinolin-7-yl)amino)-8,9-dihydroimidazo[1,2-a]pyrimido[5,4-e]pyrimidin-5(6H)-one]	4760 nM	15%	59%	98%	617 nM
Cc1cccc(C)c1N1C(=O)c2cnc(Nc3ccc4c(c3)CN(C)CC43CC3)nc2N2CCN=C21 [Example 17, 6-(2,6-Dimethylphenyl)-2-((2′-methyl-2′,3′-dihydro-1′H-spiro[cyclopropane-1,4′-isoquinolin]-7′-yl)amino)-8,9-dihydroimidazo[1,2-a]pyrimido[5,4-e]pyrimidin-5(6H)-one]	290 nM	–	–	87%	447 nM
CC(C)N1C(=O)c2cnc(Nc3ccc(N4CCN(C)CC4)cc3)nc2N2CCN=C21 [Example 18, 6-Isopropyl-2-((4-(4-methylpiperazin-1-yl)phenyl)amino)-8,9-dihydroimidazo[1,2-a]pyrimido[5,4-e]pyrimidin-5(6H)-one]	> 1000 nM	–	–	14%	> 10000 nM
CN1CCN(c2ccc(Nc3ncc4c(n3)N3CCN=C3N(C(C)(C)C)C4=O)cc2)CC1 [Example 19, 6-(Tert-butyl)-2-((4-(4-methylpiperazin-1-yl)phenyl)amino)-8,9-dihydroimidazo[1,2-a]pyrimido[5,4-e]pyrimidin-5(6H)-one]	> 100000 nM	–	–	7%	> 10000 nM

Further lines, results first:

IC50 (LoVo cells)	Inh. (%) of Wee1 kinase enzyme activity (Wee1 (h); C 0.01 μm compound)	Inh. (%) of Wee1 kinase enzyme activity (Wee1 (h); C 0.1 μm compound)	Inh. (%) of Wee1 kinase enzyme activity (Wee1 (h); C 1 μm compound)	IC50 (NCI-H1299 cells)	SMILES
> 100000 nM	–	–	9%	> 10000 nM	CN1CCN(c2ccc(Nc3ncc4c(n3)N3CCN=C3N(C3CC3)C4=O)cc2)CC1 [Example 20, 6-Cyclopropyl-2-((4-(4-methylpiperazin-1-yl)phenyl)amino)-8,9-dihydroimidazo[1,2-a]pyrimido[5,4-e]pyrimidin-5(6H)-one]
2130 nM	–	–	9%	3300 nM	CN1CCN(c2ccc(Nc3ncc4c(n3)N3CCN=C3N(C3CCCCC3)C4=O)cc2)CC1 [Example 21, 6-Cyclohexyl-2-((4-(4-methylpiperazin-1-yl)phenyl)amino)-8,9-dihydroimidazo[1,2-a]pyrimido[5,4-e]pyrimidin-5(6H)-one]
> 100000 nM	–	–	8%	> 10000 nM	C=CCN1C(=O)c2cnc(Nc3ccc(N4CCN(C)CC4)cc3)nc2N2CCN=C12 [Example 22, 6-Allyl-2-((4-(4-methylpiperazin-1-yl)phenyl)amino)-8,9-dihydroimidazo[1,2-a]pyrimido[5,4-e]pyrimidin-5(6H)-one]
> 3000 nM	–	–	22%	> 10000 nM	CN1CCN(c2ccc(Nc3ncc4c(n3)N3CCN=C3N(c3cccs3)C4=O)cc2)CC1 [Example 23, 2-((4-(4-Methylpiperazin-1-yl)phenyl)amino)-6-(thiophen-2-yl)-8,9-dihydroimidazo[1,2-a]pyrimido[5,4-e]pyrimidin-5(6H)-one]
> 100000 nM	–	–	17%	> 10000 nM	CN1CCN(c2ccc(Nc3ncc4c(n3)N3CC(C)(C)N=C3N(c3c(F)cccc3Cl)C4=O)cc2)CC1 [Example 27, 6-(2-Chloro-6-fluorophenyl)-8,8-dimethyl-2-((4-(4-methylpiperazin-1-yl)phenyl)amino)-8,9-dihydroimidazo[1,2-a]pyrimido[5,4-e]pyrimidin-5(6H)-one]
